Data: US20250228853A1, “Apoptosis Inhibitors” (Queen's University at Kingston, priority 2024, published 2025)
“Also recorded” adds a separate entry of the source.

Experiments:
[1] = system: BEAS-2B cells infected with HCoV-OC43; assay: apoptosis by TUNEL staining in HCoV-OC43 infected BEAS-2B cells; assay type: cell-based, human; conditions: for apoptosis (TUNEL positive cells): BEAS-2B, 48 h treatment from 24 h post infection, FIG. 1B; for effectiveness in the in vitro screening to confirm biological activity: in vitro screening as described in the patent
Protocol: (§1) Cell Culture: BEAS-2B cells (an epithelial cell line that was isolated from normal human bronchial epithelium) were purchased from the American Type Culture Collection (ATCC) through Cedarlane Corp., Burlington, Canada. The cells were cultured in bronchial epithelial cell growth medium (Lonza/Clonetics Corporation, Basel, Switzerland) supplemented with 10% fetal bovine serum (FBS). Cells were cultured at 37° C. in a humidified incubator balanced with 5% CO2.
(§2) Compound solution preparation for in vitro experiments: Candidate compounds were dissolved in anhydrous Dimethyl Sulfoxide (DMSO) (available from Sigma Aldrich), filtered by a 0.20 μm PTFE filter and added to culture medium to make a working solution at designated concentrations. Final concentration of DMSO in culture medium was ≤0.1%. Same volume of DMSO was used as control.
(§3) An apoptosis study was conducted (see FIGS. 1A-1C). HCoV-OC43 infection (referred to as “OC43” herein) see Archer, S. L., et al., Redox Biology ([…]) 58:102508) was performed in BEAS-2B cells (an epithelial cell line that was isolated from normal human bronchial epithelium, available from ATCC through Cedarlane Corp., Burlington, Canada). Cells were counted and then seeded in a cell culture plate overnight. The cell culture media was replaced with serum-free media containing 3 focus-forming units (ffu)/cell of OC43 virus. The cells were cultured in this inoculum for 2 hours. Then the inoculum was replaced with complete growth medium and incubated at 33° C. until 72 hours post-infection (the time of the experimental endpoint). Cells were then treated for 48 hours with AIF Inhibitor compounds starting at 24 hours post infection. Concentration of compounds: AIF inhibitor 1, AIF inhibitor 3, and AIF inhibitor 6 were used at a concentration of 10 uM; Drpitor1a, which is a Drp1 inhibitor and is not an AIF inhibitor) was used at a concentration of 1 uM. Cell viability was measured by cell count (see FIG. 1A). Apoptotic cells were measured by TUNEL staining (see FIG. 1B) (see Archer, S. L., et al., Redox Biol. (2022) 58:102508). Cells were dual stained with Click-iT® Plus TUNEL (available from Thermo Fisher, Waltham, MA, USA) and 4′,6-diamidino-2-phenylindole (DAPI) (available from Thermo Fisher, Waltham, MA, USA). Images were captured on a Leica SP8 confocal microscope using a 63×1.4 NA objective and a white light laser at 488 nm. Emission acquisition gating was 510-530 nm (for TUNEL). A 405 nm laser diode was used for DAPI excitation and the emission acquisition gate was set at 420-480 nm. Viral loads were quantified using qRT-PCR (see FIG. 1C). mRNA level of HCoV-OC43 N protein was measured and compared among treatment groups.

[2] = system: BEAS-2B cells infected with HCoV-OC43; assay: cell viability by cell count in HCoV-OC43 infected BEAS-2B cells; assay type: cell-based, human; conditions: 1 uM, 48 h treatment from 24 h post infection, endpoint 72 h, FIG. 1A
Protocol: as §1, §2
An apoptosis study was conducted (see FIGS. 1A-1C). […] Cells were counted and then seeded in a cell culture plate overnight. […] Cell viability was measured by cell count (see FIG. 1A). Apoptotic cells were measured by TUNEL staining (see FIG. 1B) (see Archer, S. L., et al., Redox Biol. (2022) 58:102508). […] Viral loads were quantified using qRT-PCR (see FIG. 1C). mRNA level of HCoV-OC43 N protein was measured and compared among treatment groups.

HCoV-OC43 = assay: viral load by qRT-PCR of HCoV-OC43 N protein mRNA in BEAS-2B cells; assay type: cell-based, Human coronavirus OC43; conditions: 48 h treatment from 24 h post infection, FIG. 1C
Protocol: as §1, §2, §3

[3] = system: murine hepatitis virus-1 (MHV-1); assay: murine model of MHV-1 pneumonia (lung photographs, micro-CT, hemodynamics); assay type: in vivo; conditions: 1 mg/kg QD IP 5 days
Protocol: Five-week-old A/J mice (Jackson Labs, Bar Harbour, Maine) were given an intranasal inoculation of either MHV-1 (5000 PFU/17 μl) or an identical volume of saline as control. AIF inhibitor 6 was administered for 5 days (1 mg/kg, QD, IP) post infection. At day 5 post-infection, mice were anesthetized with a single IP injection of ketamine/xylazine (150 mg/kg and 10 mg/kg, respectively). O2 saturation was measured while mice breathed room air, following which they were intubated and mechanically ventilated, which increased their O2 saturation. Transcutaneous O2 saturation was monitored during the procedure using a MouseSTAT® Jr. rodent pulse oximeter attached to the rear paw (Kent Scientific Corporation, Torrington, CT, USA). Right heart catheterization (RHC) was performed using a 1.2F Scisense pressure-volume catheter (Transonic Systems Inc., Ithaca, NY, USA) via a closed chest approach. Mice were ventilated with normoxic gas (room air, 20.6% O2) for 10 minutes, followed by hypoxic gas for 10 minutes (10% 02 balanced with N2) and then followed by normoxic gas (room air, 20.6% O2) for 10 minutes. This regimen was designed to elicit hypoxic pulmonary vasoconstriction (HPV), a normal physiologic response of the pulmonary arteries to airway hypoxia.
Referring to FIGS. 2A-2B, photographs and micro-CT images are shown from a study probing the effect of AIF Inhibitors on murine lung that had been exposed to MHV-1. Lungs were fixed with 4% formaldehyde (PFA) and perfused with 25% barium sulfate via the trachea and imaged by microCT. The micro-CT images were acquired using a VECTor4CT pre-clinical scanner (MILabs B.V., Utrecht, Netherlands) equipped with a cone beam X-ray CT system. The measurements used an acceleration voltage of 50 kVp and X-ray tube current of 430 μA in the ultra-focus mode, allowing acquisition of 3,600 projections with exposure time 40 ms, resulting in a 25 μm resolution. Tomographic CT images of FIG. 2B were compiled using MILabs reconstruction software. For quantification and segmentation, CT image data was manually processed using PMOD 3.9 software (PMOD Technologies Ltd., Zurich, Switzerland).

[4] = MHV-1 infected mice, vs vehicle, FIG. 2A

Compound | apoptosis (TUNEL positive cells) ([1]; HCoV-OC43, 1 uM) | cell numbers (cell count) after HCoV-OC43 infection [2] | viral load (Relative N expression, Nucleocapsid mRNA) (HCoV-OC43; HCoV-OC43, 1 uM) | apoptosis (TUNEL positive cells) ([1]; HCoV-OC43, 10 uM) | effectiveness in the in vitro screening to confirm biological activity [1] | viral load (Relative N expression, Nucleocapsid mRNA) (HCoV-OC43; HCoV-OC43, 10 uM) | lung edema [3, 4] | structural damage of the lungs [3, 4] | lung perfusion (micro-CT, barium contrast) ([3]; MHV-1 infected mice, vs vehicle, FIG. 2B) | hypoxic pulmonary vasoconstriction (rise in RVSP with hypoxia) ([3]; MHV-1 infected mouse, 10% O2 for 10 min, one mouse per group, FIG. 2C)
O=C1c2ccncc2C(=O)c2c1[nH]c1ccccc21 [Drpitor1a, reference compound] | reduced | reversed | reduced viral load | – | – | – | – | – | – | –
O=C1c2ccccc2C(=O)N1CCc1c[nH]c2ccc(OCc3ccccc3)cc12 [Compound 6, 2-(2-(5-(benzyloxy)-1H-indol-3-yl)ethyl) isoindoline-1,3-dione] | – | – | – | reduced | particularly effective | lowers the viral titer; also recorded: reduced viral load | reduced lung edema | significantly less structural damage | increased lung perfusion | restored hypoxic pulmonary vasoconstriction
CN1C(CC2=NC(C3CCOCC3)CC(=O)N2)=NCc2ccccc21 (stereo not shown) [Compound 1, 2-[(1-methyl-1,4-dihydroquinazolin-2-yl)methyl)-6-(tetrahydro-2H-pyran-4-yl)-5,6-dihydropyrimidin-4 (3H)-one] | – | – | – | reduced | particularly effective | reduced viral load | – | – | – | –
CCN(CC)C(=O)c1nc2ccccc2cc1C(=O)c1cc(=O)[nH]c2ccccc12 [Compound 3, N,N-diethyl-3-(2-oxo-1,2-dihydroquinoline-4-carbonyl) quinoline-2-carboxamide] | – | – | – | reduced | particularly effective | reduced viral load | – | – | – | –
